According to patent US7186672B2, “Fungicidal mixtures” (BASF Aktiengesellschaft, priority 2001, dated 2007):

System: Erysiphe [syn. Blumeria] graminis forma specialis tritici
Assay: Protective activity against mildew of wheat (potted wheat seedlings, greenhouse)
Format: in vivo
Conditions: wheat cv. Kanzler, 7 days
Description: The active compounds, separately or together, were formulated as a 10% emulsion in a mixture of 63% by weight of cyclohexanone and 27% by weight of emulsifier, and diluted with water to the desired concentration.
Evaluation was carried out by determining the infected leaf areas in percent. These percentages were converted into efficacies. The efficacy (W) was calculated as follows using Abbot's formula: […] • α corresponds to the fungal infection of the treated plants in % and • β corresponds to the fungal infection of the untreated (control) plants in %
An efficacy of 0 means that the infection level of the treated plants corresponds to that of the untreated control plants; an efficacy of 100 means that the treated plants were not infected.
The expected efficacies of the mixtures of the active compounds were determined using Colby's formula [R. S. Colby, Weeds 15, 20–22 (1967)] and compared with the observed efficacies. Colby's formula: E=x+y−x·y/100 • E expected efficacy, expressed in % of the untreated control, when using the mixture of the active compounds A and B at the concentrations a and b • x efficacy, expressed in % of the untreated control, when using active compound A at a concentration of a • y efficacy, expressed in % of the untreated control, when using active compound B at a concentration of b.
Protective Activity Against Mildew of Wheat Caused by Erysiphe [syn. Blumeria] graminis forma specialis tritici
Leaves of potted wheat seedlings of the cultivar “Kanzler” were sprayed to runoff point with an aqueous preparation of active compound which had been prepared from a stock solution made of 10% of active compound, 85% of cyclohexanone and 5% of emulsifier and, 24 hours after the spray coating had dried on, dusted with spores of mildew of wheat (Erysiphe [syn. Blumeria] graminis forma specialis. tritici). The test plants were then placed in a greenhouse at 20–24° C. and 60–90% relative atmospheric humidity. After 7 days, the extent of the mildew development was determined visually in % infection of the total leaf area.
The visually determined percentages of infected leaf area were converted into efficacies as % of the untreated control. An efficacy of 0 means that the infection level of the treated plants corresponds to that of the untreated control; an efficacy of 100 means 0% infection. The expected efficacies of the combinations of active compounds were determined using Colby's formula (Colby, S. R. (Calculating synergistic and antagonistic responses of herbicide Combinations”, Weeds, 15, pp. 20–22, 1967) and compared with the observed efficacies.

[1] = 0.6 ppm active compound in the spray liquor
[2] = 1.25 ppm active compound in the spray liquor

| Compound | Efficacy in % of the untreated control [1] | Efficacy in % of the untreated control [2] | Efficacy in % of the untreated control (2.5 ppm active compound in the spray liquor) | Efficacy in % of the untreated control (0.3 ppm active compound in the spray liquor) |
| --- | --- | --- | --- | --- |
| pyraclostrobin [II-6] | 36% | 47% | 57% |  |
| Fc1ccc([C@]2(Cn3cncn3)O[C@H]2c2ccccc2Cl)cc1 (racemic) [III.a, (2RS,3SR)-1-[3-(2-chlorophenyl)-2-(4-fluorophenyl)-oxiran-2-ylmethyl]-1H-1,2,4-triazole] | 4% | 4% |  | 4% |
